Numbered stars: 1 amine (or outer) side, 2 acyl side, 3 side chain; on linkers, the order of the positions; unused ones are H or OH. Square brackets hold non-standard residues; d marks the D form. Peptide text beside a SMILES is read from it. * marks the point of attachment. Phe(4-CN) = N#Cc1ccc(C[C@H](N)C(=O)O)cc1; X6 = NC[C@@H](O)[C@@H](N[*:1])C(=O)[*:2]; Phe(3-F) = N[C@@H](Cc1cccc(F)c1)C(=O)O; Dab(3S-OH) = NC[C@H](O)[C@H](N)C(=O)O; His(π-Me) = Cn1cncc1C[C@H](N)C(=O)O; Lys(iPr) = CC(C)NCCCC[C@H](N)C(=O)O; ΔZArg = N=C(N)NCC/C=C(\N)C(=O)O; Gly(cPr) = N[C@H](C(=O)O)C1CC1; Lys(Me) = CNCCCC[C@H](N)C(=O)O; NMeK = CN[C@@H](CCCCN)C(=O)O; dOrn = NCCC[C@@H](N)C(=O)O; hSer = N[C@@H](CCO)C(=O)O; NMeA = CN[C@@H](C)C(=O)O; Orn = NCCC[C@H](N)C(=O)O; Dab = NCC[C@H](N)C(=O)O; NH(CH2)4NH2 = NCCCCN*
Tests used:
Test in all cases: MIC, broth microdilution (CLSI), reference strain
Conditions in all cases: CAMHB
[1] = tested on: Acinetobacter baumannii ATCC 19606
[2] = tested on: Staphylococcus aureus ATCC 13709
[3] = tested on: Pseudomonas aeruginosa ATCC 27853
[4] = tested on: Escherichia coli ATCC 25922

Row | SMILES | Ab: MIC Acinetobacter baumannii ATCC 19606 [1] | Sa: MIC Staphylococcus aureus ATCC 13709 [2] | Pa: MIC Pseudomonas aeruginosa ATCC 27853 [3] | Ec: MIC Escherichia coli ATCC 25922 [4]
1 | C[C@H](NC(=O)[C@H](CCN)NC(=O)[C@@H](N)CCCCN)C(=O)NCC(=O)N[C@H](CCCN)C(=O)N1CCC[C@H]1C(=O)N[C@@H](Cc1cnc[nH]1)C(=O)N[C@@H](CCCCN)C(=O)N/C(=C\CCNC(=N)N)C(=O)N[C@@H](CCCCN)C(N)=O [14.12] (H-K[Dab]AG[dOrn]PHK[ΔZArg]K-NH2) | − (>32 μg/mL) | ++ (≤8 μg/mL) | − (>32 μg/mL) | + (≤32 μg/mL)
2 | NCCCCNC(=O)[C@H](CCCCN)NC(=O)[C@@H](CCCN)NC(=O)[C@H](CCCCN)NC(=O)[C@H](Cc1cnc[nH]1)NC(=O)[C@@H]1CCCN1C(=O)[C@@H](CCCN)NC(=O)CNC(=O)[C@@H](NC(=O)[C@@H](NC(=O)[C@@H](N)CCCCN)[C@@H](O)CN)[C@@H](O)CN [22.22] (H-K[Dab(3S-OH)][Dab(3S-OH)]G[dOrn]PHK[dOrn]K-{NH(CH2)4NH2}) | − (>32 μg/mL) | ++ (≤8 μg/mL) | − (>32 μg/mL) | − (>32 μg/mL)
3 | N=C(N)NCC/C=C(\NC(=O)[C@H](CCCCN)NC(=O)[C@H](Cc1cnc[nH]1)NC(=O)[C@@H]1CCCN1C(=O)[C@@H](CCCN)NC(=O)CNC(=O)[C@H](CCN)NC(=O)[C@H](CCN)NC(=O)[C@@H](N)CCCCN)C(=O)N[C@@H](CCCCN)C(=O)NCCCCN [11.1] (H-K[Dab][Dab]G[dOrn]PHK[ΔZArg]K-{NH(CH2)4NH2}) | − (>32 μg/mL) | ++ (≤8 μg/mL) | − (>32 μg/mL) | − (>32 μg/mL)
4 | N#Cc1ccc(C[C@H](NC(=O)[C@@H]2CCCN2C(=O)[C@@H](CCCN)NC(=O)CNC(=O)[C@H](CCN)NC(=O)[C@@H](NC(=O)[C@@H](N)CCCCN)[C@@H](O)CN)C(=O)N[C@@H](CCCCN)C(=O)N/C(=C\CCNC(=N)N)C(=O)O)cc1 [21.9] (H-K[Dab(3S-OH)][Dab]G[dOrn]P[Phe(4-CN)]K[ΔZArg]-OH) | − (>32 μg/mL) | ++ (≤8 μg/mL) | − (>32 μg/mL) | ++ (≤8 μg/mL)
5 | N=C(N)NCC/C=C(\NC(=O)[C@H](CCCCN)NC(=O)[C@H](Cc1cnc[nH]1)NC(=O)[C@@H]1CCCN1C(=O)[C@@H](CCCN)NC(=O)CNC(=O)[C@H](NC(=O)[C@@H](NC(=O)[C@@H](N)CCCCN)[C@@H](O)CN)[C@H](O)CN)C(=O)N[C@@H](CCCCN)C(=O)NCCCCN [22.32] (H-K[Dab(3S-OH)][X6]G[dOrn]PHK[ΔZArg]K-{NH(CH2)4NH2}) | − (>32 μg/mL) | ++ (≤8 μg/mL) | − (>32 μg/mL) | − (>32 μg/mL)
6 | CN[C@@H](CCCCN)C(=O)N[C@@H](CCN)C(=O)N[C@@H](C)C(=O)NCC(=O)N[C@H](CCCN)C(=O)N1CCC[C@H]1C(=O)N[C@@H](Cc1cnc[nH]1)C(=O)N[C@@H](CCCCN)C(=O)N/C(=C\CCNC(=N)N)C(=O)N[C@@H](CCCCN)C(=O)NCCCCN [14.9] (H-[NMeK][Dab]AG[dOrn]PHK[ΔZArg]K-{NH(CH2)4NH2}) | − (>32 μg/mL) | ++ (≤8 μg/mL) | − (>32 μg/mL) | − (>32 μg/mL)
7 | N=C(N)NCCC[C@H](NC(=O)[C@H](CCCCN)NC(=O)[C@H](Cc1cnc[nH]1)NC(=O)[C@@H]1CCCN1C(=O)[C@@H](CCCN)NC(=O)CNC(=O)[C@@H](NC(=O)[C@@H](NC(=O)[C@@H](N)CCCCN)[C@@H](O)CN)[C@@H](O)CN)C(=O)N[C@@H](CCCCN)C(=O)NCCCCN [22.17] (H-K[Dab(3S-OH)][Dab(3S-OH)]G[dOrn]PHKRK-{NH(CH2)4NH2}) | − (>32 μg/mL) | ++ (≤8 μg/mL) | − (>32 μg/mL) | + (≤32 μg/mL)

Next, values leading:

Row | Ab: MIC Acinetobacter baumannii ATCC 19606 [1] | Sa: MIC Staphylococcus aureus ATCC 13709 [2] | Pa: MIC Pseudomonas aeruginosa ATCC 27853 [3] | Ec: MIC Escherichia coli ATCC 25922 [4] | SMILES
8 | − (>32 μg/mL) | − (>32 μg/mL) | − (>32 μg/mL) | − (>32 μg/mL) | C[C@H](NC(=O)[C@@H](NC(=O)[C@@H](N)CCCCN)[C@@H](O)CN)C(=O)NCC(=O)N[C@H](CCCN)C(=O)N(C)[C@@H](C)C(=O)N[C@@H](Cc1cnc[nH]1)C(=O)N[C@@H](CCCCN)C(=O)N/C(=C\CCNC(=N)N)C(=O)O [24.146] (H-K[Dab(3S-OH)]AG[dOrn][NMeA]HK[ΔZArg]-OH)
9 | − (>32 μg/mL) | + (≤32 μg/mL) | − (>32 μg/mL) | + (≤32 μg/mL) | N=C(N)NCC/C=C(\NC(=O)[C@H](CCCCN)NC(=O)[C@H](Cc1cnc[nH]1)NC(=O)[C@@H]1CCCN1C(=O)[C@@H](CCCN)NC(=O)CNC(=O)[C@@H](NC(=O)[C@@H](NC(=O)[C@@H](N)CCCCN)[C@@H](O)CN)C1CC1)C(=O)O [213.2] (H-K[Dab(3S-OH)][Gly(cPr)]G[dOrn]PHK[ΔZArg]-OH)
10 | − (>32 μg/mL) | + (≤32 μg/mL) | − (>32 μg/mL) | − (>32 μg/mL) | N=C(N)NCC/C=C(\NC(=O)[C@H](CCCCN)NC(=O)[C@H](Cc1c[nH]cn1)NC(=O)[C@@H]1CCCN1C(=O)[C@@H](CCCN)NC(=O)CNC(=O)[C@H](CCO)NC(=O)[C@@H](NC(=O)[C@@H](N)CCCCN)[C@@H](O)CN)C(=O)O [225.1] (H-K[Dab(3S-OH)][hSer]G[dOrn]PHK[ΔZArg]-OH)
11 | − (>32 μg/mL) | ++ (≤8 μg/mL) | − (>32 μg/mL) | ++ (≤8 μg/mL) | N=C(N)NCC/C=C(\NC(=O)[C@H](CCCCN)NC(=O)[C@H](Cc1cccc(F)c1)NC(=O)[C@@H]1CCCN1C(=O)[C@@H](CCCN)NC(=O)CNC(=O)[C@H](CCCN)NC(=O)[C@@H](NC(=O)[C@@H](N)CCCCN)[C@@H](O)CN)C(=O)O [211.4] (H-K[Dab(3S-OH)][Orn]G[dOrn]P[Phe(3-F)]K[ΔZArg]-OH)
12 | − (>32 μg/mL) | − (>32 μg/mL) | − (>32 μg/mL) | − (>32 μg/mL) | CC(C)NCCCC[C@H](N)C(=O)N[C@H](C(=O)N[C@@H](C)C(=O)NCC(=O)N[C@H](CCCN)C(=O)N1CCC[C@H]1C(=O)N[C@@H](Cc1cnc[nH]1)C(=O)N[C@@H](CCCCN)C(=O)N/C(=C\CCNC(=N)N)C(=O)O)[C@@H](O)CN [24.147] (H-[Lys(iPr)][Dab(3S-OH)]AG[dOrn]PHK[ΔZArg]-OH)
13 | − (>32 μg/mL) | + (≤32 μg/mL) | − (>32 μg/mL) | + (≤32 μg/mL) | C[C@H](NC(=O)[C@@H](NC(=O)[C@@H](N)CCCCN)[C@@H](O)CN)C(=O)NCC(=O)N[C@H](CCCN)C(=O)N1CCC[C@H]1C(=O)N[C@@H](Cc1cncn1C)C(=O)N[C@@H](CCCCN)C(=O)N/C(=C\CCNC(=N)N)C(=O)O [24.91] (H-K[Dab(3S-OH)]AG[dOrn]P[His(π-Me)]K[ΔZArg]-OH)
14 | − (>32 μg/mL) | ++ (≤8 μg/mL) | − (>32 μg/mL) | + (≤32 μg/mL) | C[C@H](NC(=O)[C@@H](NC(=O)[C@@H](N)CCCCN)[C@@H](O)CN)C(=O)NCC(=O)N[C@H](CCCN)C(=O)N1CCC[C@H]1C(=O)N[C@@H](Cc1cnc[nH]1)C(=O)N[C@@H](CCCCN)C(=O)N[C@H](CCCNC(=N)N)C(N)=O [24.68] (H-K[Dab(3S-OH)]AG[dOrn]PHK[dR]-NH2)
15 | − (>32 μg/mL) | + (≤32 μg/mL) | − (>32 μg/mL) | − (>32 μg/mL) | N=C(N)NCC/C=C(\NC(=O)[C@H](CCCCN)NC(=O)[C@H](Cc1cnc[nH]1)NC(=O)[C@@H]1CCCN1C(=O)[C@@H](CCCN)NC(=O)CNC(=O)[C@H](CCC(N)=O)NC(=O)[C@@H](NC(=O)[C@@H](N)CCCCN)[C@@H](O)CN)C(N)=O [222.1] (H-K[Dab(3S-OH)]QG[dOrn]PHK[ΔZArg]-NH2)
16 | − (>32 μg/mL) | + (≤32 μg/mL) | − (>32 μg/mL) | + (≤32 μg/mL) | CNCCCC[C@H](N)C(=O)N[C@H](C(=O)N[C@@H](C)C(=O)NCC(=O)N[C@H](CCCN)C(=O)N1CCC[C@H]1C(=O)N[C@@H](Cc1cnc[nH]1)C(=O)N[C@@H](CCCCN)C(=O)N/C(=C\CCNC(=N)N)C(=O)O)[C@@H](O)CN [24.149] (H-[Lys(Me)][Dab(3S-OH)]AG[dOrn]PHK[ΔZArg]-OH)
17 | + (≤32 μg/mL) | ++ (≤8 μg/mL) | ++ (≤8 μg/mL) | ++ (≤8 μg/mL) | N=C(N)NCC/C=C(\NC(=O)[C@H](CCCCN)NC(=O)[C@H](Cc1cnc[nH]1)NC(=O)[C@@H]1CCCN1C(=O)[C@@H](CCCN)NC(=O)CNC(=O)[C@H](CCCN)NC(=O)[C@@H](NC(=O)[C@@H](N)CCCCN)[C@@H](O)CN)C(=O)N[C@@H](CCCCN)C(=O)NCCCCN [211.1] (H-K[Dab(3S-OH)][Orn]G[dOrn]PHK[ΔZArg]K-{NH(CH2)4NH2})
18 | − (>32 μg/mL) | ++ (≤8 μg/mL) | − (>32 μg/mL) | + (≤32 μg/mL) | C[C@H](NC(=O)[C@@H](NC(=O)[C@@H](N)CCCN)[C@@H](O)CN)C(=O)NCC(=O)N[C@H](CCCN)C(=O)N1CCC[C@H]1C(=O)N[C@@H](Cc1cnc[nH]1)C(=O)N[C@@H](CCCCN)C(=O)N/C(=C\CCNC(=N)N)C(N)=O [24.150] (H-[Orn][Dab(3S-OH)]AG[dOrn]PHK[ΔZArg]-NH2)
